Measurements published in ChEMBL document CHEMBL1201862, “PubChem BioAssay data set” (2004).
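Five concentrations, 48 hours, 96-well plates. GI50 is the concentration that inhibits growth by half.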 Activity calls are given as the source filed them. Cut-off read from the data, not from the text of the source: active = GI50 up to about 1.1 µM and inactive = higher.

Columns and labels:
Assay in all cases: inhibition of tumour cell growth, NCI panel, 48 h
786-0 = test system: 786-0
A549 = test system: A549
ACHN = test system: ACHN
BT-549 = test system: BT-549
CAKI-1 = test system: CAKI-1
CCRF-CEM = test system: CCRF-CEM
COLO 205 = test system: COLO 205
DU-145 = test system: DU-145
EKVX = test system: EKVX
HCC 2998 = test system: HCC 2998
HCT-116 = test system: HCT-116
HCT-15 = test system: HCT-15
HL-60 = test system: HL-60
HOP-62 = test system: HOP-62
HOP-92 = test system: HOP-92
HT-29 = test system: HT-29
IGROV-1 = test system: IGROV-1
K562 = test system: K562
KM12 = test system: KM12
MCF7 = test system: MCF7
MDA-N = test system: MDA-N
MOLT-4 = test system: MOLT-4
Malme-3M = test system: Malme-3M
NCI-H226 = test system: NCI-H226
NCI-H23 = test system: NCI-H23
NCI-H460 = test system: NCI-H460
NCI-H522 = test system: NCI-H522
NCI/ADR-RES = test system: NCI/ADR-RES
OVCAR-3 = test system: OVCAR-3
OVCAR-4 = test system: OVCAR-4
OVCAR-5 = test system: OVCAR-5
OVCAR-8 = test system: OVCAR-8
PC-3 = test system: PC-3
RPMI-8226 = test system: RPMI-8226
RXF 393 = test system: RXF 393
SF-268 = test system: SF-268
SF-295 = test system: SF-295
SF-539 = test system: SF-539
SK-MEL-28 = test system: SK-MEL-28
SK-MEL-2 = test system: SK-MEL-2
SK-OV-3 = test system: SK-OV-3
SN12C = test system: SN12C
SNB-19 = test system: SNB-19
SNB-75 = test system: SNB-75
SR = test system: SR
SW-620 = test system: SW-620
TK-10 = test system: TK-10
U-251 = test system: U-251
UACC-257 = test system: UACC-257
UACC-62 = test system: UACC-62
UO-31 = test system: UO-31
A498 = test system: A498
Hs-578T = test system: Hs-578T
LOX IMVI = test system: LOX IMVI
M14 = test system: M14
MDA-MB-231 = test system: MDA-MB-231
MDA-MB-435 = test system: MDA-MB-435
SK-MEL-5 = test system: SK-MEL-5

Measured: GI50

O=C1c2ccccc2-c2nc3ccncc3n21
> 100 µM: HCT-15
inactive: 786-0 > 100 µM | A549 > 100 µM | ACHN > 100 µM | BT-549 > 100 µM | CAKI-1 > 100 µM | CCRF-CEM > 100 µM | COLO 205 > 100 µM | DU-145 51.5 µM | EKVX > 100 µM | HCC 2998 > 100 µM | HCT-116 30.5 µM | HL-60 > 100 µM | HOP-62 > 100 µM | HOP-92 > 100 µM | HT-29 > 100 µM | IGROV-1 > 100 µM | K562 > 100 µM | KM12 > 100 µM | MCF7 > 100 µM | MDA-N 31.1 µM | MOLT-4 > 100 µM | Malme-3M > 100 µM | NCI-H226 > 100 µM | NCI-H23 > 100 µM | NCI-H460 > 100 µM | NCI-H522 > 100 µM | NCI/ADR-RES > 100 µM | OVCAR-3 > 100 µM | OVCAR-4 > 100 µM | OVCAR-5 > 100 µM | OVCAR-8 > 100 µM | PC-3 > 100 µM | RPMI-8226 > 100 µM | RXF 393 > 100 µM | SF-268 > 100 µM | SF-295 > 100 µM | SF-539 > 100 µM | SK-MEL-28 > 100 µM | SK-MEL-2 > 100 µM | SK-OV-3 > 100 µM | SN12C > 100 µM | SNB-19 > 100 µM | SNB-75 > 100 µM | SR > 100 µM | SW-620 > 100 µM | TK-10 > 100 µM | U-251 > 100 µM | UACC-257 > 100 µM | UACC-62 > 100 µM | UO-31 > 100 µM

COc1cc2c(cc1OC)-c1c(oc3cc(OC4OC(CO)C(O)C(O)C4O)c(OC)cc3c1=O)C(O)O2 (stereo not given)
inactive: 786-0 > 100 µM | A498 > 100 µM | A549 > 100 µM | ACHN > 100 µM | BT-549 > 100 µM | CAKI-1 > 100 µM | CCRF-CEM > 100 µM | COLO 205 > 100 µM | DU-145 > 100 µM | EKVX > 100 µM | HCC 2998 > 100 µM | HCT-116 > 100 µM | HL-60 > 100 µM | HOP-62 > 100 µM | HOP-92 > 100 µM | HT-29 > 100 µM | Hs-578T > 100 µM | IGROV-1 > 100 µM | K562 > 100 µM | KM12 > 100 µM | LOX IMVI > 100 µM | M14 > 100 µM | MDA-MB-231 > 100 µM | MDA-MB-435 > 100 µM | Malme-3M > 100 µM | NCI-H226 > 100 µM | NCI-H23 > 100 µM | NCI-H460 > 100 µM | NCI-H522 > 100 µM | NCI/ADR-RES > 100 µM | OVCAR-3 > 100 µM | OVCAR-4 > 100 µM | OVCAR-5 > 100 µM | OVCAR-8 > 100 µM | PC-3 > 100 µM | RPMI-8226 > 100 µM | RXF 393 > 100 µM | SF-268 > 100 µM | SF-295 > 100 µM | SF-539 > 100 µM | SK-MEL-28 > 100 µM | SK-MEL-2 > 100 µM | SK-MEL-5 > 100 µM | SK-OV-3 > 100 µM | SN12C > 100 µM | SNB-19 > 100 µM | SNB-75 > 100 µM | SW-620 > 100 µM | TK-10 > 100 µM | U-251 > 100 µM | UACC-257 > 100 µM | UACC-62 > 100 µM | UO-31 > 100 µM
> 100 µM: HCT-15
